Assay results: patent US20170122958A1, “Enzymes Functional Probes” (University of Dundee, priority 2013, published 2017)

How the values were obtained:
Assay in all cases: DSF thermal shift
Assay type in all cases: binding
[1] = target: Brd2(1)*(Leu110-Ala) (Homo sapiens, UniProt P25440, L110A); parameters: Plasmids of the eight single BET bromodomain constructs Brd2(1), Brd2(2), Brd3(1), Brd3(2); His6 (N); made in house; host or cells: E. coli BL21(DE3); settings: mutant
Procedure: (§1) DSF assays were performed on a LightCycler®480 from Roche or a Mx3005P Real Time PCR machine from Stratagene. […] SYPRO®Orange from Invitrogen Molecular Probes® was used as a reporter dye to monitor the denaturing process of the proteins. Samples were assayed on a 96-well plate with final protein concentrations of 2 μM for the LightCycler®480 and 6 μM for Mx3005P. Compounds were added at a final concentration of 10 μM for the LightCycler®480 and 30 μM for Mx3005P, while the tetra acetylated histone peptide was added to a final concentration of 100 μM and 300 μM respectively. […] The temperature was raised with a step of 0.6° C. per minute from 37° C. to 95° C. with the LightCycler®480 collecting 39 measurements per ° C., and 1° C. per minute from 25° C. to 95° C. with Mx3005P, collecting fluorescence readings at the end of each interval. Each sample was run in triplicates.
(§2) Collected data was analysed by IGOR Pro 6, a scientific software tool from Wave Metrics, Inc. Analysis was done following the recommendations of Niesen et al.. Fluorescence intensity was plotted as a function of temperature, generating a sigmoidal curve described by a two-state transition from folded to unfolded protein. Curves were fitted by the following sigmoidal equation: […]
(§3) A1 and A2 are the values of minimum and maximum intensities, respectively, x0 is the inflection point and dx is the rate. Fitted curves were differentiated in IGOR Pro 6 and the maximum of the first derivative was identified using the same program. These values correspond to the inflection points of the transition curves and thus to the melting temperatures of the proteins (Tm).

[2] = target: Brd2(2)*(Leu383-Ala) (Homo sapiens, UniProt P25440, L383A); parameters: Plasmids of the eight single BET bromodomain constructs Brd2(1), Brd2(2), Brd3(1), Brd3(2); His6 (N); made in house; host or cells: E. coli BL21(DE3); settings: mutant
Chain of Brd2(2)*(Leu383-Ala) (P25440 344-453 L383A limits assumed): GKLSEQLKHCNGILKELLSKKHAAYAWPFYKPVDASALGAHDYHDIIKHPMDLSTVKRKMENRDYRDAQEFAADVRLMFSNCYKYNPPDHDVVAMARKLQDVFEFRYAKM
Procedure: as §1, §2, §3

[3] = target: T1, Brd4(2) (Homo sapiens, UniProt O60885); settings: wild type
T1 construct: Plasmids of the eight single BET bromodomain constructs Brd2(1), Brd2(2), Brd3(1), Brd3(2), Brd4(1), Brd4(2), Brdt(1) and Brdt(2); His6 (N); made in house; host or cells: E. coli BL21(DE3)

[4] = target: T2, brd4(1)L094A (Homo sapiens, UniProt O60885, L94A); settings: mutant
T2 construct: Plasmids of the eight single BET bromodomain constructs Brd2(1), Brd2(2), Brd3(1), Brd3(2), Brd4(1), Brd4(2), Brdt(1) and Brdt(2); His6 (N); made in house; host or cells: E. coli BL21(DE3)

[5] = target: T3, Brd2(2) (Homo sapiens, UniProt P25440); settings: wild type
T3 construct: Plasmids of the eight single BET bromodomain constructs Brd2(1), Brd2(2), Brd3(1), Brd3(2); His6 (N); made in house; host or cells: E. coli BL21(DE3)
T3 sequence (P25440 344-453 limits assumed): as the sequence (P25440 344-453 L383A limits assumed) above, with A40L counted along it

[6] = target: T4, Brd2(1) (Homo sapiens, UniProt P25440); settings: wild type
T4 construct: Plasmids of the eight single BET bromodomain constructs Brd2(1), Brd2(2), Brd3(1), Brd3(2); His6 (N); made in house; host or cells: E. coli BL21(DE3)
T4 sequence (P25440 74-180 limits assumed): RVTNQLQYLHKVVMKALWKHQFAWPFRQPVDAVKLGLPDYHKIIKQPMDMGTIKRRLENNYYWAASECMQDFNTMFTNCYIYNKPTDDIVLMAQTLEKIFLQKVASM

[7] = target: T5, Brd4(1) (Homo sapiens, UniProt O60885); settings: wild type
T5 construct: Plasmids of the eight single BET bromodomain constructs Brd2(1), Brd2(2), Brd3(1), Brd3(2), Brd4(1), Brd4(2), Brdt(1) and Brdt(2); His6 (N); made in house; host or cells: E. coli BL21(DE3)

[8] = target: T6, brd4(2)L387A (Homo sapiens, UniProt O60885, L387A); settings: mutant
T6 construct: Plasmids of the eight single BET bromodomain constructs Brd2(1), Brd2(2), Brd3(1), Brd3(2), Brd4(1), Brd4(2), Brdt(1) and Brdt(2); His6 (N); made in house; host or cells: E. coli BL21(DE3)

[9] = target: T7, Brd2(2)*(Val376Ala) (Homo sapiens, UniProt P25440, V376A); settings: mutant
T7 construct: Plasmids of the eight single BET bromodomain constructs Brd2(1), Brd2(2), Brd3(1), Brd3(2); His6 (N); made in house; host or cells: E. coli BL21(DE3)
T7 sequence (P25440 344-453 V376A limits assumed): as the sequence (P25440 344-453 L383A limits assumed) above, with V33A, A40L counted along it

[10] = target: T8, Brd2(1)*(Val103-Ala) (Homo sapiens, UniProt P25440, V103A); settings: mutant
T8 construct: Plasmids of the eight single BET bromodomain constructs Brd2(1), Brd2(2), Brd3(1), Brd3(2); His6 (N); made in house; host or cells: E. coli BL21(DE3)
T8 sequence (P25440 74-180 V103A limits assumed): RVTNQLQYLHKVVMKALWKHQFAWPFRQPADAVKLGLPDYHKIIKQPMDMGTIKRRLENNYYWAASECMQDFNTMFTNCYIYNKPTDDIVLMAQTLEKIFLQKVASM

Chain of Brd2(1)*(Leu110-Ala) (P25440 74-180 L110A limits assumed): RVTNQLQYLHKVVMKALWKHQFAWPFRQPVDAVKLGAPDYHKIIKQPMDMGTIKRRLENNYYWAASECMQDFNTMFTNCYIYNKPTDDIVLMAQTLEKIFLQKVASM

Structure (SMILES) | ΔTm Brd2(1)*(Leu110-Ala) [1] [K] | ΔTm Brd2(2)*(Leu383-Ala) [2] [K] | ΔTm Brd4(2) [3] [K] | ΔTm Brd4(1)* (L094A) [4] [K] | ΔTm Brd2(2) [5] [K] | ΔTm Brd2(1) [6] [K] | ΔTm Brd4(1) [7] [K] | ΔTm Brd4(2)* (L387A) [8] [K] | Thermal stabilisation brd2(2)V376A [9] [°C] | ΔTm Brd(2)*(Val376-Ala) [9] [K] | Thermal stabilisation brd2(2) [5] [°C] | Thermal stabilisation brd2(1) [6] [°C] | Thermal stabilisation brd2(1)V103A [10] [°C] | ΔTm Brd2(1)*(Val103-Ala) [10] [K]
CCC[C@H](C(=O)OC)[C@@H]1N=C(c2ccc(Cl)cc2)c2cc(OC)ccc2-n2c(C)nnc21 (racemic) [Compound 15, (+−)-Methyl (S)-2-((S)-6-(4-chlorophenyl)-8-methoxy-1-methyl-4H-benzo[f][1,2,4]triazolo[4,3-a][1,4]diazepin-4-yl)pentanoate] | 0.9 ± 0.6 | 1.4 ± 0.2 | −0.5 ± 1.1 | 2.4 ± 1.3 | 0.5 ± 0.2 | 0.1 ± 0.3 | 0.6 ± 1.1 | 1.6 ± 0.3 |  |  |  |  |  | 
COC(=O)[C@@H](CC1CC1)[C@@H]1N=C(c2ccc(Cl)cc2)c2cc(OC)ccc2-n2c(C)nnc21 (racemic) [Compound 16, (+−)-methyl (S)-2-((S)-6-(4-chlorophenyl)-8-methoxy-1-methyl-4H-benzo[f][1,2,4]triazolo[4,3-a][1,4]diazepin-4-yl)-3-cyclopropylpropanoate] | 1.6 ± 1.0 | 2.3 ± 0.3 | 0.3 ± 0.9 | 1.3 ± 0.2 | 1.1 ± 0.3 | −0.5 ± 0.6 | −0.4 ± 0.5 | 0.1 ± 0.1 |  |  |  |  |  | 
COC(=O)CC1N=C(c2ccc(Cl)cc2)c2cc(OC)cc(C)c2-n2c(C)nnc21 (stereo not drawn) [Compound 4, Methyl 2-(6-(4-chlorophenyl)-8-methoxy-1,10-dimethyl-4H benzo[f][1,2,4]triazolo[4,3-a][1,4]diazepin-4-yl)acetate] |  |  |  |  | 4.0 ± 0.1 | 0.7 ± 0.2 |  |  | 1.2 ± 0.1 | 1.2 ± 0.1 | 4.0 ± 0.1 | 0.7 ± 0.2 | 0.5 ± 0.3 | 0.5 ± 0.3
